# Data taken from patent publication US8492410B2, “Pyridine derivatives as sphingosine 1-phosphate (S1P) receptor modulators” (Allergan, Inc., priority 2010, dated 2013).
# Biological target: T1, human S1P1 receptor (Homo sapiens, UniProt P21453)
# T1 construct: expressed in transfected cells; membranes were used
# Assay: GTP γ35S binding assay for S1P1 activity
# Assay type: biochemical
# Settings: activity potency from GTP γ35S binding; 5 μg membrane protein, 30 min at 25° C., test compounds 0.08 to 5,000 nM
# Procedure: Compounds were synthesized and tested for S1P1 activity using the GTP γ^35S binding assay. These compounds may be assessed for their ability to activate or block activation of the human S1P1 receptor in cells stably expressing the S1P1 receptor.
# GTP γ^35S binding was measured in the medium containing (mM) HEPES 25, pH 7.4, MgCl2 10, NaCl 100, dithitothreitol 0.5, digitonin 0.003%, 0.2 nM GTP γ^35S, and 5 μg membrane protein in a volume of 150 μl. Test compounds were included in the concentration range from 0.08 to 5,000 nM unless indicated otherwise. Membranes were incubated with 100 μM 5′-adenylylimmidodiphosphate for 30 min, and subsequently with 10 μM GDP for 10 min on ice. Drug solutions and membrane were mixed, and then reactions were initiated by adding GTP γ^35S and continued for 30 min at 25° C. Reaction mixtures were filtered over Whatman GF/B filters under vacuum, and washed three times with 3 mL of ice-cold buffer (HEPES 25, pH7.4, MgCl2 10 and NaCl 100). Filters were dried and mixed with scintillant, and counted for ^35S activity using a 8-counter. Agonist-induced GTP γ^35S binding was obtained by subtracting that in the absence of agonist. Binding data were analyzed using a non-linear regression method. In case of antagonist assay, the reaction mixture contained 10 nM S1P in the presence of test antagonist at concentrations ranging from 0.08 to 5000 nM.
# T1 sequence (P21453 whole entry): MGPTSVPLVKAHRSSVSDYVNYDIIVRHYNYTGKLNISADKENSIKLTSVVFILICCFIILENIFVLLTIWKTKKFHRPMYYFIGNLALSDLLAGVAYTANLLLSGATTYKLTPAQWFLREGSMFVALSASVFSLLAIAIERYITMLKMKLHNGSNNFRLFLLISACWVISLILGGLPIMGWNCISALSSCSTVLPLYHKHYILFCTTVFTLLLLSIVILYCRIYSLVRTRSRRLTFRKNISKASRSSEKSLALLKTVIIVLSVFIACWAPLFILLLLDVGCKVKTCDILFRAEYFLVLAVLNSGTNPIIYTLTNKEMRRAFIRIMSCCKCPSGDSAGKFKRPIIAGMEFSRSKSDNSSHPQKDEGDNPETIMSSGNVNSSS
row,EC50 [µM],SMILES
1,0.167,"CNc1ncccc1-c1noc(C(Cc2ccc(C)c(C)c2)c2cccc(C(F)(F)F)c2)n1 (stereo not drawn) [3-(5-{2-(3,4-dimethylphenyl)-1-[3-(trifluoromethyl)phenyl]ethyl}-1,2,4-oxadiazol-3-yl)-N-methylpyridin-2-amine]"
2,2.26,"CNc1ncccc1-c1noc(C(Cc2ccc(C)c(C)c2)c2ccc(C(F)(F)F)cc2)n1 (stereo not drawn) [3-(5-{2-(3,4-dimethylphenyl)-1-[4-(trifluoromethyl)phenyl]ethyl}-1,2,4-oxadiazol-3-yl)-N-methylpyridin-2-amine]"
3,0.125,"CNc1ncccc1-c1noc(C(Cc2cccc(C)c2)c2cccc(Cl)c2)n1 (stereo not drawn) [3-{5-[1-(3-chlorophenyl)-2-(3-methylphenyl)ethyl]-1,2,4-oxadiazol-3-yl}-N-methylpyridin-2-amine]"
4,2.09,"CNc1ncccc1-c1noc(C(Cc2ccc(CC(C)C)cc2)c2cccc(Cl)c2)n1 (stereo not drawn) [3-{5-[1-(3-chlorophenyl)-2-(4-isobutylphenyl)ethyl]-1,2,4-oxadiazol-3-yl}-N-methylpyridin-2-amine]"
5,0.0783,"CNc1ncccc1-c1noc(C(Cc2ccc(C)cc2)c2cccc(Cl)c2)n1 (stereo not drawn) [3-{5-[1-(3-chlorophenyl)-2-(4-methylphenyl)ethyl]-1,2,4-oxadiazol-3-yl}-N-methylpyridin-2-amine]"
6,0.348,"CNc1ncccc1-c1noc(C(CC2CCCCC2)c2cccc(Cl)c2)n1 (stereo not drawn) [3-{5-[1-(3-chlorophenyl)-2-cyclohexylethyl]-1,2,4-oxadiazol-3-yl}-N-methylpyridin-2-amine]"
7,1.86,"CNc1ncccc1-c1noc(C(CC2CCCC2)c2cccc(Cl)c2)n1 (stereo not drawn) [3-{5-[1-(3-chlorophenyl)-2-cyclopentylethyl]-1,2,4-oxadiazol-3-yl}-N-methylpyridin-2-amine]"
8,0.112,"CNc1ncccc1-c1noc(C(Cc2ccccc2)c2cccc(Cl)c2)n1 (stereo not drawn) [3-{5-[1-(3-chlorophenyl)-2-phenylethyl]-1,2,4-oxadiazol-3-yl}-N-methylpyridin-2-amine]"
9,2.02,"CNc1ncccc1-c1noc(C(Cc2ccc(Cl)c(Cl)c2)c2ccc(Cl)cc2)n1 (stereo not drawn) [3-{5-[1-(4-chlorophenyl)-2-(3,4-dichlorophenyl)ethyl]-1,2,4-oxadiazol-3-yl}-N-methylpyridin-2-amine]"
10,2.4,"CNc1ncccc1-c1noc(C(Cc2ccccc2)c2ccc(Cl)cc2)n1 (stereo not drawn) [3-{5-[1-(4-chlorophenyl)-2-phenylethyl]-1,2,4-oxadiazol-3-yl}-N-methylpyridin-2-amine]"
11,0.0145,"CNc1ncccc1-c1noc(C(Cc2ccc(C)c(C)c2)c2cncc(Cl)c2)n1 (stereo not drawn) [3-{5-[1-(5-chloropyridin-3-yl)-2-(3,4-dimethylphenyl)ethyl]-1,2,4-oxadiazol-3-yl}-N-methylpyridin-2-amine]"
12,0.274,"CNc1ncccc1-c1noc(C(Cc2ccc(C)c(C)c2)c2ccc(Cl)nc2)n1 (stereo not drawn) [3-{5-[1-(6-chloropyridin-3-yl)-2-(3,4-dimethylphenyl)ethyl]-1,2,4-oxadiazol-3-yl}-N-methylpyridin-2-amine]"
13,2.76,"CNc1ncccc1-c1noc(C(Cc2cc(C)cc(C)c2)c2ccc(Cl)nc2)n1 (stereo not drawn) [3-{5-[1-(6-chloropyridin-3-yl)-2-(3,5-dimethylphenyl)ethyl]-1,2,4-oxadiazol-3-yl}-N-methylpyridin-2-amine]"
14,0.0618,"CCc1cccc(C(Cc2ccc(C)c(C)c2)c2nc(-c3cccnc3NC)no2)c1 (stereo not drawn) [3-{5-[2-(3,4-dimethylphenyl)-1-(3-ethylphenyl)ethyl]-1,2,4-oxadiazol-3-yl}-N-methylpyridin-2-amine]"
15,0.0357,"CNc1ncccc1-c1noc(C(Cc2ccc(C)c(C)c2)c2cccc(F)c2)n1 (stereo not drawn) [3-{5-[2-(3,4-dimethylphenyl)-1-(3-fluorophenyl)ethyl]-1,2,4-oxadiazol-3-yl}-N-methylpyridin-2-amine]"
16,0.0776,"CNc1ncccc1-c1noc(C(Cc2ccc(C)c(C)c2)c2cccc(OC)c2)n1 (stereo not drawn) [3-{5-[2-(3,4-dimethylphenyl)-1-(3-methoxyphenyl)ethyl]-1,2,4-oxadiazol-3-yl}-N-methylpyridin-2-amine]"
17,0.0502,"CNc1ncccc1-c1noc(C(Cc2ccc(C)c(C)c2)c2cccc(C)c2)n1 (stereo not drawn) [3-{5-[2-(3,4-dimethylphenyl)-1-(3-methylphenyl)ethyl]-1,2,4-oxadiazol-3-yl}-N-methylpyridin-2-amine]"
18,0.0864,"CNc1ncccc1-c1noc(C(Cc2ccc(C)c(C)c2)c2cccc([N+](=O)[O-])c2)n1 (stereo not drawn) [3-{5-[2-(3,4-dimethylphenyl)-1-(3-nitrophenyl)ethyl]-1,2,4-oxadiazol-3-yl}-N-methylpyridin-2-amine]"
19,1.33,"CNc1ncccc1-c1noc(C(Cc2ccc(C)c(C)c2)c2ccc(OC)cc2)n1 (stereo not drawn) [3-{5-[2-(3,4-dimethylphenyl)-1-(4-methoxyphenyl)ethyl]-1,2,4-oxadiazol-3-yl}-N-methylpyridin-2-amine]"
20,0.912,"CNc1ncccc1-c1noc(C(Cc2ccc(C)c(C)c2)c2ccccc2)n1 (stereo not drawn) [3-{5-[2-(3,4-dimethylphenyl)-1-phenylethyl]-1,2,4-oxadiazol-3-yl}-N-methylpyridin-2-amine]"
21,0.533,"CNc1ncccc1-c1noc(C(Cc2ccc(C)cc2)c2ccsc2)n1 (stereo not drawn) [Compound 1, N-methyl-3-(5-(1-(thiophen-3-yl)-2-(p-tolyl)ethyl)-1,2,4-oxadiazol-3-yl)pyridin-2-amine]"
22,0.0664,"CNc1ncccc1-c1noc(C(Cc2ccc(C)c(C)c2)c2cccc(Cl)c2)n1 (stereo not drawn) [Compound 2, 3-{5-[2-(3,4-dimethylphenyl)-1-(3-chlorophenyl)ethyl]-1,2,4-oxadiazol-3-yl}-N-methylpyridin-2-amine]"
23,0.0506,"CNc1ncccc1-c1noc(C(Cc2ccc(C)c(C)c2)c2cccc(Br)c2)n1 (stereo not drawn) [Compound 3, 3-{5-[2-(3,4-dimethylphenyl)-1-(3-bromophenyl)ethyl]-1,2,4-oxadiazol-3-yl}-N-methylpyridin-2-amine]"
24,0.47,"CNc1ncccc1-c1noc(C(Cc2ccc(C)c(C)c2)c2ccc(Cl)cc2)n1 (stereo not drawn) [Compound 10, 3-{5-[2-(3,4-dimethylphenyl)-1-(4-chlorophenyl)ethyl]-1,2,4-oxadiazol-3-yl}-N-methylpyridin-2-amine]"
25,0.012,"CNc1ncccc1-c1noc(C(Cc2ccc(C)c(C)c2)c2cc(F)cc(F)c2)n1 (stereo not drawn) [Compound 23, 3-(5-(1-(3,5-difluorophenyl)-2-(3,4-dimethylphenyl)ethyl)-1,2,4-oxadiazol-3-yl)-N-methylpyridin-2-amine]"
26,1.24,"CNc1ncccc1-c1noc(C(Cc2ccccc2)c2ccccc2)n1 (stereo not drawn) [Compound 24, 3-(5-(1,2-diphenylethyl)-1,2,4-oxadiazol-3-yl)-N-methylpyridin-2-amine]"
27,0.161,"CNc1ncccc1-c1noc(C(Cc2ccc(C)c(C)c2)c2cc(C)cc(C)c2)n1 (stereo not drawn) [Compound 25, 3-(5-(2-(3,4-dimethylphenyl)-1-(3,5-dimethylphenyl)ethyl)-1,2,4-oxadiazol-3-yl)-N-methylpyridin-2-amine]"
28,0.928,"CNc1ncccc1-c1noc(C(Cc2ccc(C)cc2)c2cccs2)n1 (stereo not drawn) [Compound 26, N-methyl-3-(5-(1-(thiophen-2-yl)-2-(p-tolyl)ethyl)-1,2,4-oxadiazol-3-yl)pyridin-2-amine]"
29,0.524,"CNc1ncccc1-c1noc(C(Cc2ccc(C)c(C)c2)c2cccs2)n1 (stereo not drawn) [Compound 27, 3-(5-(2-(3,4-dimethylphenyl)-1-(thiophen-2-yl)ethyl)-1,2,4-oxadiazol-3-yl)-N-methylpyridin-2-amine]"
30,0.296,"CNc1ncccc1-c1noc(C(Cc2ccc(C)c(C)c2)c2ccsc2)n1 (stereo not drawn) [Compound 29, 3-(5-(2-(3,4-dimethylphenyl)-1-(thiophen-3-yl)ethyl)-1,2,4-oxadiazol-3-yl)-N-methylpyridin-2-amine]"
